{
  "source": "patent US9023831B2",
  "about": "“Methods and compositions of inhibiting complement and cellular activation with Dextran Sulfate” (Novelmed Therapeutics, Inc., priority 2007, dated 2015)",
  "key": {"arthritic Lewis rats": {"test_system": "arthritic Lewis rats", "test": "Joint inflammation and bone destruction in Rat-AIA (CFA-induced arthritis)", "type": "in vivo", "method": "Lewis male rats were used to examine the effect of Dextran Sulfate combination with aggrastat (molecular weight 40,000 and 5,000) for the treatment of arthritis. Arthritis was induced in adult male Lewis rats (200-225 gm) by an intradermal injection of complete Freund's adjuvant (CFA) at the base of the tail on the dorsal side. The CFA (100 mg dried and heat killed Mycobacterium butyricum (Difco, Detroit, Mich.) emulsified in 10 ml sterile mineral oil) was prepared by grinding the bacteria powder with a mortar and pestle until the bacterial cell wall turned from a light beige to an eggshell white powder. The mineral oil was then slowly mixed into the bacterial cell wall using the mortar and pestle. All animals in each experiment were challenged with the same preparation of adjuvant and nearly 100% of the animals developed arthritis. Dextran Sulfate was obtained from Sigma Aldrich Corp and Aggrastat was purchased from the pharmacy. Dextran Sulfate was dissolved in aggrastat. The drug treatment started on day 10 post-immunization, the time of disease onset, and continued until sacrifice. The dose of Dextran Sulfate was 20 & 10 mg/Kg/per day per 150-200 g rat. The inflammatory response was assesed by the measurement of paw volume. Paw volume appears to be very consistent and gave slow increasing arthritis over time. Paw volumes were measured every day until sacrifice using Plethysmometer (IITC). After the sacrifice/euthanasia, limbs were removed and processed for;\na) histological evaluations: Only three animals were used per group. Sections were stained with Eosin and hematoxylin to identify various regions within the inflamed limb. Untreated controls have intact cartilage layer and the bone (Score 0) and clear synovium without pannus. Arthritic controls had no defined cartilage bone, and have pannus layer and significant inflammation (Score 5). Enbrel was used as positive control. […] We gave a score of 2.\nb) Paw Swelling: Each paw was measured for water displacement using plethysmometer. Paw volume was measured every day.\nContinuous treatment of Dextran Sulfate therapies from disease onset affected paw swelling in arthritic rats. All adjuvant-challenged rats developed AA between days 10-12. […] While inflammation was decreased in these treatment groups, we observed a greater effect for these drugs in prevention of bone and cartilage destruction."}, "[1]": {"test_system": "platelets (CD62P staining)", "test": "Platelet activation (CD62P flow cytometry) after tubing loop", "type": "cell-based, human", "details": "Aspirin 100 μg/ml added to NM3014 prior to tubing loop rotation", "method": "It was expected that platelet activation would also be inhibited. […] The inhibition of platelet activation was measured using flow cytometry following CD62P staining of activated platelets.\nIt was expected that platelet activation will also be inhibited. […] The inhibition of platelet activation was measured using flow cytometry following CD62P staining of activated platelets.\nWhile platelets bear C3a receptors, it is not clear how platelets were being activated. In an effort to downregulate platelet activation, we performed an experiment in which Dextran Sulfate was utilized in combination with aspirin. […] These surprising results present Dextran Sulfate as a lead complement inhibitory drug that down regulates both complement and cellular activation in heparinized whole human blood. Shown in FIGS. 10d and 10e are results from this study.\nFor CD62P labeling of platelets, 100 μl of diluted blood collected from the circuits were immediately incubated with 20 μl of PE-anti-CD62P antibody (Becton Dickinson) for 20 minutes at room temperature in a polypropylene tube, Then the mixture was treated with FACS Lysing Solution as described above. The microcentrifuge tubes were centrifuged at 12000. g for 5 minutes. The platelets were washed in PBS/BSA 01%, fixed in 1% paraformaldehyde and then analyzed as described above. For double labeling to concomitantly identify the platelet population, 5 μl of FITC-anti-CD61 antibody were added for incubation together with PE-anti-CD62P antibody.\nFor flow cytometry measurement, the PMN (containing mainly neutrophils) and platelet populations were identified by live gating based on forward- versus side-scatter parameters and specific staining with FITC-anti-CD15 antibody and FITC-anti-CD61 antibody, respectively. The background staining was gated using isotype-matched labeled antibodies. The intensity of expression of CD11b and CD62P was represented by mean fluorescence intensity (MFI)."}},
  "data": [
    {"molecule": "Dextran Sulfate [Dextran Sulfate 5,000]", "values": [
      {"measurement": "paw swelling (paw volume, plethysmometer)", "setting": "arthritic Lewis rats; with Aggrastat, compared to untreated controls", "result": "decreased the inflammation"}
    ]},
    {"molecule": "CC(=O)Oc1ccccc1C(=O)O", "note": "[Aspirin, reference compound]", "values": [
      {"measurement": "inhibition of NM3014 induced platelet activation", "setting": "[1]", "result": "inhibition of platelet activation much below the control levels"},
      {"measurement": "inhibition of NM3014 induced platelet activation", "setting": "[1]; listed as aspirin", "result": "downregulated activation of platelets much below control levels"}
    ]},
    {"molecule": "Enbrel [reference compound]", "values": [
      {"measurement": "histological score", "setting": "arthritic Lewis rats; Score 0 untreated controls, Score 5 arthritic controls", "result": 2}
    ]}
  ]
}
